Earlier results on three compounds are cited in patent publication US20200325234A1, “IMMUNE-BASED TREATMENT OF KRAS-VARIANT CANCER PATIENTS” (MIRA DX, INC., priority 2016, published 2020).

Molecules are shown by their SMILES. Where two headings read alike, the source gives them in different places.

In this data set the test system is KRAS-variant patients.
[1] abbreviates: KRAS-variant patients with non-small cell lung cancer (NSCLC).

`N.N.[Cl][Pt][Cl]` [cisplatin]: the response to therapy entry (KRAS-variant patients with ovarian or head and neck cancer) is listed as “resistance”.

With `C#Cc1cccc(Nc2ncnc3cc(OCCOC)c(OCCOC)cc23)c1` [erlotonib], under setting [1], the response to therapy entry is given as “resistance”.

`CNC(=O)c1cc(Oc2ccc(NC(=O)Nc3ccc(Cl)c(C(F)(F)F)c3)cc2)ccn1` [sorafenib]: the response to therapy entry under setting [1] is listed as “sensitivity”.
